Several values for one entry are separate records, joined by “and”; a condition that tells them apart may be missing. Identical values can stand only once.
Tested on: 186277-243-T-J2-PDC complex spheroid viability
Assay: Anticancer human tumor 186277-243-T-J2-PDC patient-derived colon adenocarcinoma cell line growth inhibition [POLQ]
Settings: for viability, T/C: stronger effect = lower value; active = viability on the fitted dose curve at most 10% of control; inactive = the rest
Procedure, shortened: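 Patient-derived tumour cells were co-cultured with HUVEC and mesenchymal stem cells as multicellular spheroids at 37 °C. They were treated with POLQ inhibitors (novobiocin, ART-558, RP6685) alone or combined with other agents. Top concentrations were at or near clinical Cmax (otherwise 10 microM; SN-38 at 1 microM), decreasing in half-log steps.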

[1] = curve of first compound, second compound 0.0316 µM
[2] = curve of first compound, second compound 0.1 µM
[3] = curve of first compound, second compound 0.316 µM
[4] = curve of first compound, second compound 1 µM
[5] = curve of first compound, second compound 3.16 µM
[6] = curve of first compound, second compound 10 µM
[7] = second compound 0.0316 µM, first compound 0.0316 µM
[8] = second compound 0.0316 µM, first compound 0.1 µM
[9] = second compound 0.0316 µM, first compound 0.316 µM
[10] = second compound 0.0316 µM, first compound 1 µM
[11] = second compound 0.0316 µM, first compound 3.16 µM
[12] = second compound 0.0316 µM, first compound 10 µM
[13] = second compound 0.1 µM, first compound 0.0316 µM
[14] = second compound 0.1 µM, first compound 0.1 µM
[15] = second compound 0.1 µM, first compound 0.316 µM
[16] = second compound 0.1 µM, first compound 1 µM
[17] = second compound 0.1 µM, first compound 3.16 µM
[18] = second compound 0.1 µM, first compound 10 µM
[19] = second compound 0.316 µM, first compound 0.0316 µM
[20] = second compound 0.316 µM, first compound 0.1 µM
[21] = second compound 0.316 µM, first compound 0.316 µM
[22] = second compound 0.316 µM, first compound 1 µM
[23] = second compound 0.316 µM, first compound 3.16 µM
[24] = second compound 0.316 µM, first compound 10 µM
[25] = second compound 1 µM, first compound 0.0316 µM
[26] = second compound 1 µM, first compound 0.1 µM
[27] = second compound 1 µM, first compound 0.316 µM
[28] = second compound 1 µM, first compound 1 µM
[29] = second compound 1 µM, first compound 3.16 µM
[30] = second compound 1 µM, first compound 10 µM
[31] = second compound 3.16 µM, first compound 0.0316 µM
[32] = second compound 3.16 µM, first compound 0.1 µM
[33] = second compound 3.16 µM, first compound 0.316 µM
[34] = second compound 3.16 µM, first compound 1 µM
[35] = second compound 3.16 µM, first compound 3.16 µM
[36] = second compound 3.16 µM, first compound 10 µM
[37] = second compound 10 µM, first compound 0.0316 µM
[38] = second compound 10 µM, first compound 0.1 µM
[39] = second compound 10 µM, first compound 0.316 µM
[40] = second compound 10 µM, first compound 1 µM
[41] = second compound 10 µM, first compound 3.16 µM
[42] = second compound 10 µM, first compound 10 µM
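Also: spheroids exposed to compounds for seven days.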
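For viability, T/C in this document: 100% = DMSO vehicle control viability.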

CC1COCCN1c1cc(C2(O)CC3CCC(C2)O3)c2cnn(-c3ccn[nH]3)c2n1 (stereo unspecified) + COC1C(OC(N)=O)C(O)C(Oc2ccc3c(O)c(NC(=O)c4ccc(O)c(CC=C(C)C)c4)c(=O)oc3c2C)OC1(C)C
inactive: viability, T/C [7] 56.8% | viability, T/C [8] 11% | viability, T/C [13] 60% | viability, T/C [19] 60% | viability, T/C [20] 12.3% | viability, T/C [25] 56.2% | viability, T/C [26] 12.9% | viability, T/C [31] 63% | viability, T/C [37] 47.8%
< 31.6 nM: IC50 [6]
41.8 nM: IC50 [5]
active: viability, T/C [9] 4.13% | viability, T/C [10] 2.97% | viability, T/C [11] 3.3% | viability, T/C [12] 3.36% | viability, T/C [14] 8.95% | viability, T/C [15] 3.87% | viability, T/C [16] 2.7% | viability, T/C [17] 3.24% | viability, T/C [18] 3.18% | viability, T/C [21] 4.98% | viability, T/C [22] 2.92% | viability, T/C [23] 3.45% | viability, T/C [24] 3.48% | viability, T/C [27] 3.79% | viability, T/C [28] 2.66% | viability, T/C [29] 3.46% | viability, T/C [30] 3.76% | viability, T/C [32] 9.45% | viability, T/C [33] 4.01% | viability, T/C [34] 2.86% | viability, T/C [35] 3.33% | viability, T/C [36] 3.12% | viability, T/C [38] 7.48% | viability, T/C [39] 4.86% | viability, T/C [40] 2.78% | viability, T/C [41] 4.14% | viability, T/C [42] 3.73%
37.5 nM: IC50 [1]
40.3 nM: IC50 [3]
39.6 nM: IC50 [2]
37.2 nM: IC50 [4]

Nc1ccn(C2OC(CO)C(O)C2(F)F)c(=O)n1 (stereo unspecified) + Nc1ccc(C#CCN(C(=O)Cc2ncc(C(F)(F)F)cc2C(F)(F)F)c2ccc(F)cc2)nn1
inactive: viability, T/C [7] 14.7% | viability, T/C [8] 11.5% | viability, T/C [9] 11.6% | viability, T/C [10] 14% | viability, T/C [11] 14% | viability, T/C [12] 13.6% | viability, T/C [13] 13.9% | viability, T/C [14] 12.2% | viability, T/C [15] 12.4% | viability, T/C [16] 13.2% | viability, T/C [17] 15% | viability, T/C [18] 13.8% | viability, T/C [19] 14.4% | viability, T/C [20] 12.9% | viability, T/C [21] 12.7% | viability, T/C [22] 13.4% | viability, T/C [23] 14.1% | viability, T/C [24] 15.2% | viability, T/C [25] 12.8% | viability, T/C [26] 12% | viability, T/C [27] 11.7% | viability, T/C [28] 13% | viability, T/C [29] 14.8% | viability, T/C [30] 14.3% | viability, T/C [31] 13% | viability, T/C [32] 13.9% | viability, T/C [33] 10.6% | viability, T/C [34] 11.9% | viability, T/C [35] 15.2% | viability, T/C [36] 15.3% | viability, T/C [37] 12.5% | viability, T/C [38] 11.3% | viability, T/C [39] 11.5% | viability, T/C [40] 11.5% | viability, T/C [41] 12.9% | viability, T/C [42] 13.9%
< 31.6 nM: IC50 [1] | IC50 [2] | IC50 [3] | IC50 [4] | IC50 [5] | IC50 [6]

COc1ccc([C@@H](O)c2cc(-c3ncnc4cc(N5CCOCC5)ccc34)c(F)cc2Cl)nn1
6450 nM and > 10000 nM and 5930 nM: IC50 (curve of compound)
inactive: viability, T/C (compound 0.0316 µM) 113% and 93.8% and 106% | viability, T/C (compound 0.1 µM) 98% and 93.7% and 97.8% | viability, T/C (compound 0.316 µM) 86.5% and 101% and 97.7% | viability, T/C (compound 1 µM) 98.4% and 104% (2×) | viability, T/C (compound 3.16 µM) 80.8% and 96.9% and 74.1% | viability, T/C (compound 10 µM) 31.1% and 61% and 30.1%

CC(=O)O[C@H]1C(=O)[C@@]2(C)[C@H]([C@H](OC(=O)c3ccccc3)[C@]3(O)C[C@H](OC(=O)[C@H](O)[C@@H](NC(=O)c4ccccc4)c4ccccc4)C(C)=C1C3(C)C)[C@]1(OC(C)=O)CO[C@@H]1C[C@@H]2O
active: viability, T/C (compound 0.0949 µM) 7.36% and 7.77% and 3.51% | viability, T/C (compound 0.3 µM) 5.49% and 5.99% and 2.78% | viability, T/C (compound 0.949 µM) 5.37% and 6% and 2.77% | viability, T/C (compound 3 µM) 4.97% and 5.56% and 2.45%
inactive: viability, T/C (compound 0.00949 µM) 38.5% and 44.7% and 19.1%
10.6% and 11.3% and 5.03%: viability, T/C (compound 0.03 µM)
< 9.49 nM: IC50 (curve of compound)

CC(C)n1c(=O)n(C)c2cnc3cc(F)c(-c4ccc(OCCCN5CCCCC5)nc4)cc3c21 + COC1C(OC(N)=O)C(O)C(Oc2ccc3c(O)c(NC(=O)c4ccc(O)c(CC=C(C)C)c4)c(=O)oc3c2C)OC1(C)C
inactive: viability, T/C [7] 104% | viability, T/C [8] 97.4% | viability, T/C [9] 98.1% | viability, T/C [10] 93.2% | viability, T/C [11] 94.3% | viability, T/C [12] 116% | viability, T/C [13] 111% | viability, T/C [14] 87.2% | viability, T/C [15] 103% | viability, T/C [16] 101% | viability, T/C [17] 107% | viability, T/C [18] 92.2% | viability, T/C [19] 99.1% | viability, T/C [20] 98.3% | viability, T/C [21] 96.1% | viability, T/C [22] 97.9% | viability, T/C [23] 114% | viability, T/C [24] 108% | viability, T/C [25] 110% | viability, T/C [26] 93.7% | viability, T/C [27] 86.6% | viability, T/C [28] 107% | viability, T/C [29] 101% | viability, T/C [30] 101% | viability, T/C [31] 98.2% | viability, T/C [32] 95.2% | viability, T/C [33] 105% | viability, T/C [34] 106% | viability, T/C [35] 92.5% | viability, T/C [36] 102% | viability, T/C [37] 102% | viability, T/C [38] 109% | viability, T/C [39] 115% | viability, T/C [40] 115% | viability, T/C [41] 108% | viability, T/C [42] 89.8%
> 10000 nM: IC50 [1] | IC50 [2] | IC50 [3] | IC50 [4] | IC50 [5] | IC50 [6]

O=c1[nH]cc(F)c(=O)[nH]1 + Nc1ccc(C#CCN(C(=O)Cc2ncc(C(F)(F)F)cc2C(F)(F)F)c2ccc(F)cc2)nn1
> 10000 nM: IC50 [1] | IC50 [2] | IC50 [3] | IC50 [4] | IC50 [5] | IC50 [6]
inactive: viability, T/C [7] 102% | viability, T/C [8] 94.3% | viability, T/C [9] 103% | viability, T/C [10] 102% | viability, T/C [11] 97.4% | viability, T/C [12] 64.8% | viability, T/C [13] 97.7% | viability, T/C [14] 112% | viability, T/C [15] 97.4% | viability, T/C [16] 107% | viability, T/C [17] 103% | viability, T/C [18] 67.3% | viability, T/C [19] 95.9% | viability, T/C [20] 103% | viability, T/C [21] 101% | viability, T/C [22] 88.3% | viability, T/C [23] 97.3% | viability, T/C [24] 65.6% | viability, T/C [25] 98.8% | viability, T/C [26] 92.6% | viability, T/C [27] 109% | viability, T/C [28] 87.6% | viability, T/C [29] 107% | viability, T/C [30] 63.1% | viability, T/C [31] 103% | viability, T/C [32] 96.5% | viability, T/C [33] 109% | viability, T/C [34] 106% | viability, T/C [35] 104% | viability, T/C [36] 61% | viability, T/C [37] 109% | viability, T/C [38] 106% | viability, T/C [39] 101% | viability, T/C [40] 102% | viability, T/C [41] 90.6% | viability, T/C [42] 52.4%

O=C(Nc1ccc(O)c(NS(=O)(=O)c2ccc(F)cc2)c1)c1ccc(-c2ccccc2)cc1
inactive: viability, T/C (compound 0.0316 µM) 108% and 109% and 99.2% | viability, T/C (compound 0.1 µM) 95.9% and 81.3% and 96.8% | viability, T/C (compound 0.316 µM) 103% and 90% and 102% | viability, T/C (compound 1 µM) 93.1% and 95.4% and 95.7% | viability, T/C (compound 3.16 µM) 114% and 98.8% and 102% | viability, T/C (compound 10 µM) 98% and 116% and 94.2%
> 10000 nM: IC50 (curve of compound)

CC[C@@]1(O)C(=O)OCc2c1cc1n(c2=O)Cc2cc3c(CN(C)C)c(O)ccc3nc2-1
inactive: viability, T/C (compound 0.000316 µM) 96.6% and 87.7% and 89.5% | viability, T/C (compound 0.001 µM) 91.4% and 93.5% and 116% | viability, T/C (compound 0.00316 µM) 112% and 111% and 129% | viability, T/C (compound 0.01 µM) 119% and 125% and 112% | viability, T/C (compound 0.0316 µM) 71.8% and 125% and 61.7% | viability, T/C (compound 0.1 µM) 48.8% and 88.5% and 38.6%
94.1 nM and > 100 nM and 56.7 nM: IC50 (curve of compound)

From PubChem BioAssay AID1963854 (Molecular Pharmacology Branch, DTP, NCI, 2024)
